Data taken from paper PMC9169222, “Impedance-Based Phenotypic Readout of Transporter Function: A Case for Glutamate Transporters” (Frontiers in Pharmacology, 2022).
Structures can show the parent of a compound that is named as a salt.

Columns and labels:
[1] = target: T1, EAAT4 (JumpIn-EAAT4 cells) (Homo sapiens, UniProt P48664); experiment: Impedance-based phenotypic assay on JumpIn-EAAT4 cells; type: cell-based; details: JumpIn-EAAT4, 1 mM L-glu, p = 0.093
T1 construct: expressed in transfected cells; host or cells: Jump In T-REx HEK 293
T1 sequence (P48664 1-564): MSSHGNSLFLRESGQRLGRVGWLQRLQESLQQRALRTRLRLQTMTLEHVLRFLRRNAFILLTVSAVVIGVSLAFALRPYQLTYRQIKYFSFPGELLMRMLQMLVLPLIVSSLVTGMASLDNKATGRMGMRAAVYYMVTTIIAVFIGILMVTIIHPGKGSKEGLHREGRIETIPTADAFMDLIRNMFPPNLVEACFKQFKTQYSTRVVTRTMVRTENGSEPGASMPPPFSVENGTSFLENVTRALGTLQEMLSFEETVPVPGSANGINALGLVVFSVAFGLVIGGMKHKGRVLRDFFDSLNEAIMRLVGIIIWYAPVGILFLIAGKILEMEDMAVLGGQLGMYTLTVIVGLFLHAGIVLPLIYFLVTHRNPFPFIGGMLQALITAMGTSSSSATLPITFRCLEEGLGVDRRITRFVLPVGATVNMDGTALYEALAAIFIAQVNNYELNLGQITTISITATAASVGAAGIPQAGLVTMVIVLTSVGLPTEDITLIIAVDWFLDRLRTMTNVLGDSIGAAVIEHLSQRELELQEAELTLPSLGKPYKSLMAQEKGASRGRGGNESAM
Description: (§1) Label-free whole-cell assays, based on cell-induced changes in impedance, were performed using the xCELLigence real-time cell analyzer (RTCA) system (ACEA Biosciences, San Diego, CA, United States) as described previously ([Vlachodimou et al., 2019]; [Sijben et al., 2021a], [2021b]). In short, cells are cultured in medium on gold-plated electrodes in microwell E-plates. Per well impedance is continuously measured at 10 kHz and is converted to the unitless parameter Cell Index (CI) by the following formula: CI=(Zi−Z0)Ω/15Ω where Zi is the impedance at any given time point and Z0 is the baseline impedance measured at the start of each experiment ([Kho et al., 2015]).
(§2) Assays were performed at 37°C and 5% CO2 in 96-well PET E-plates in a total volume of 100 µl per well. Prior to cell seeding, the baseline impedance (Z0) was measured in the recording station in 40 µl (two compound additions) or 45 µl (one compound addition) medium in the presence (+) or absence (−) of 1 μg/ml dox. […]
On the day of the experiment, JumpIn-EAAT cells grown to 70–80% confluence were trypsinized (0.25% trypsin in PBS/EDTA), counted and seeded in the E-plate in a volume of 50 μl at 60,000 cells/well. […] Cell growth was recorded overnight for 22 h. […] After stimulation the impedance was measured for at least 2 h. […]
Experimental data was recorded using RTCA Software v2.0 or v2.1.1 (ACEA Biosciences). […]

[2] = test system: JumpIn-EAAT1-LifeAct-GFP cells; experiment: Automated confocal microscopy of the actin cytoskeleton (cell spreading); type: cell-based, human; details: dox-induced cells, 1 mM, within 2 h
Description: For visualization of the actin cytoskeleton, JumpIn-EAAT1 cells were transduced with a lentiviral GFP-LifeAct cDNA expression vector and were maintained in culture medium containing 2 μg/ml puromycin to select for successfully transduced cells.
JumpIn-EAAT1-LifeAct-GFP cells were seeded at 20,000 cells/well on a SCREENSTAR black-walled clear-bottom 96-well culture plate in 90 µl culture medium and grown for 24 h at 37°C and 5% CO2. […] Microscopy was performed on a Nikon Eclipse Ti2 C2+ confocal microscope (Nikon, Amsterdam, Netherlands). This system was equipped with a 37°C incubation chamber, an automated xy-stage, an integrated Perfect Focus System (PFS) and 408, 488, and 561 nm lasers. The system was controlled by Nikon’s NIS software. All images were acquired using a Plan-Apochromat ×20 objective with 0.75 NA, at a resolution of 512 × 512 pixels.

1321N1 cells = experiment: Impedance-based phenotypic assay on 1321N1 cells; type: cell-based, human; details: 1 mM
Description: as §1, §2
Experimental data was recorded using RTCA Software v2.0 or v2.1.1 (ACEA Biosciences). […] The potency values of substrates and inhibitory potencies of EAAT inhibitors were determined by fitting the net AUC data to a sigmoidal concentration-effect curve with a variable slope.

N[C@@H](CCC(=O)O)C(=O)O [L-glutamate, L-glutamic acid monosodium salt monohydrate]
Response in dox-induced vs non-induced cells [1]: not significant | Change in cell morphology after stimulation [2]: drastically extend their actin cytoskeleton outward | Cellular response within 180 min (1321N1 cells): did not show a substantial cellular response
